Measurements reported in patent US20130197085A1, “AGENT AND METHOD FOR STABILIZING MEMBRANE PROTEIN” (priority 2007, published 2013).

Experiments:
DPPIV = assay: Western blotting of canalicular membrane vesicles (CMVs) from treated rats; format: in vivo, SD rat; settings: CMVs from SD rats treated at 0.6 g/kg/day for 10 days
Procedure: […] 4PBA or a vehicle was given to a male SD rat (6- to 7-week-old) for 10 days, divided over 3 administrations. Canalicular membrane vesicles were prepared from the liver of the rat (Akita et al., Biochim Biophys Acta, 1511: 7-16, 2001), and they were then used in Western blotting and a transport assay. Such transport assay was carried out by a rapid filtration method (Hayashi et al., Biochim Biophys Acta, 1738: 54-62, 2005).

[1] = molecular target: T1, BSEP expressing on canalicular membrane (Rattus norvegicus, UniProt O70127); assay: [^3H] TC injection experiment in vivo with pharmacokinetic analysis; set-up: species or system SD rat; settings: for CLbile, liver / CLbile, plasma / CLtotal / Css, liver / Css, plasma: [^3H] TC, mean ± standard error
T1 construct: from tissue; host or cells: liver of male SD rats: in vivo for A27, canalicular membrane vesicles for A28 and A29
T1 sequence (O70127 1-1321): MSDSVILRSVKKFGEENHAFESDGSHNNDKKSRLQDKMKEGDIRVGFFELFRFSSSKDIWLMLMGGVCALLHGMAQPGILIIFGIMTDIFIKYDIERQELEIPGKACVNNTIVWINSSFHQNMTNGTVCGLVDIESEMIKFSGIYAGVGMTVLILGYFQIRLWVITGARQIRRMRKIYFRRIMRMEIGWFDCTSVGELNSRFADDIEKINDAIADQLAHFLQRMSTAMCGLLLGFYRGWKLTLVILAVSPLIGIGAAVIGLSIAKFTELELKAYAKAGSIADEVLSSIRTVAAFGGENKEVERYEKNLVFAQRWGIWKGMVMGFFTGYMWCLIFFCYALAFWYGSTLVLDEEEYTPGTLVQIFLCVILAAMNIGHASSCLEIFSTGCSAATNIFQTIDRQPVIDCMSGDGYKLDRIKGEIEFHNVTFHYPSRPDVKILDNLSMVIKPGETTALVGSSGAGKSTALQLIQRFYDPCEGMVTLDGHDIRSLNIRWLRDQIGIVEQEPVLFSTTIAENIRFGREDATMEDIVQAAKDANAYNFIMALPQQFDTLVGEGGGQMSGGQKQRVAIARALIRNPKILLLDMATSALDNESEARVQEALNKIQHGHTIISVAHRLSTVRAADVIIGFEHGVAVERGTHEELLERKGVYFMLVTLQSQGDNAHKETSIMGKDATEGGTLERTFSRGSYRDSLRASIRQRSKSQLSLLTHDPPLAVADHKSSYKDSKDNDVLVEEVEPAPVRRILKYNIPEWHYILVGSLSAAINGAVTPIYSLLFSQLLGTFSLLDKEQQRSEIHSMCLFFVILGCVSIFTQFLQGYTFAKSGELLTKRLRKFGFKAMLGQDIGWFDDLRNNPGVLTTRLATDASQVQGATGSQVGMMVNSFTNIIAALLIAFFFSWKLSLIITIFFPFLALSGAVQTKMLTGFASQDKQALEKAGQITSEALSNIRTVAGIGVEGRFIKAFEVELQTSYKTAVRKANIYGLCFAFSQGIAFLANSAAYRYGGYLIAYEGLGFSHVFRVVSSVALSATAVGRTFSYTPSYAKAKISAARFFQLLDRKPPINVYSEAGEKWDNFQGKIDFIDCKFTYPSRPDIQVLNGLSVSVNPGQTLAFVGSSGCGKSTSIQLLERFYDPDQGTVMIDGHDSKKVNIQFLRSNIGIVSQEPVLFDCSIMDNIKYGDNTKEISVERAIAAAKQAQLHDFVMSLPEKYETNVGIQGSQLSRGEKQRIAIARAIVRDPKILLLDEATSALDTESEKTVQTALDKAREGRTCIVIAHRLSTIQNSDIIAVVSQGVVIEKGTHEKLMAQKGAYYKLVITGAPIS
Procedure: Male SD rats (6- to 7-week-old) were purchased from Nippon SLC. All the animals were bred under day-night reversal conditions. They were treated under standard conditions based on the protection of animals. Feed and water were given without any limitation.
It is to be noted that the present study was carried out in accordance with the guidelines determined by the animal experiment committee in the university. 4PBA or a vehicle was given to each SD rat via a tube, for a certain period of time (5, 10, and 15 days), at various doses ([…]). After completion of the 4PBA treatment, a [^3H] TC injection experiment was carried out in vivo (see Hirano et al., Mol Pharmacol 68: 800-807. 2005). [^3H] TC dissolved in a normal saline was injected into each rat, via a cannula inserted into the femoral vein thereof, at a rate of 70 ng/min/kg for 90 minutes. Blood and bile were collected for a certain period of time. Radioactivity in plasma, bile, and liver was measured.
The total clearance of plasma (CLtotal) the clearance of bile standardized with circulating plasma (CLbile, plasma), and the clearance of bile standardized with the concentration in the liver (CLbile, liver) were calculated using the following formulae:
CLbile, plasma=Vss, bile/Css, plasma; and
CLbile, liver=Vss, bile/Css, liver
(wherein “I,” “Css, plasma,” Vss, bile” and “Css, and liver” represent, respectively, an injection rate (ng/min/kg), a plasma concentration in a steady state ([…]), a bile elimination rate in a steady state (ng/min/kg), and a mean liver concentration (ng/ml)). The plasma concentration in a steady state (Css, plasma) indicates the mean value of plasma [^3H] TC concentrations at time points of 15, 30, 60, and 90 minutes. The bile elimination rate (Vss, bile) indicates the mean value of the bile elimination rates of [^3H] TC at time points of 10-15 minutes, 25-30 minutes, 55-60 minutes, and 85-90 minutes. The mean liver concentration (Css, liver) indicates the mean value of liver [^3H] TC concentrations at the termination of the in vivo experiment.

[2] = 4PBA (0.2 g/kg/day), N = 3, SD rats
[3] = 4PBA (0.6 g/kg/day), N = 9, SD rats
[4] = 4PBA (2.4 g/kg/day), N = 3, SD rats

For `O=C(O)CCCc1ccccc1` [4PBA, 4-phenylbutyric acid], the “expression level of DPPIV in CMVs” value (DPPIV) was “not changed”, the “CLbile, liver with respect to [^3H] TC, greater than vehicle-treated rats” value ([1]; 0.6 k/kg/day for 10 days) was 2 times and the “CLbile, plasma with respect to [^3H] TC, 4PBA-treated vs vehicle-treated SD rats” value ([1]; 0.6 k/kg/day for 10 days) was “no significant difference”. For the same compound, the “CLtotal with respect to [^3H] TC, 4PBA-treated vs vehicle-treated SD rats” value ([1]; 0.6 k/kg/day for 10 days) was “no significant difference”, the “Css, liver of [^3H] TC as fraction of that in vehicle-treated SD rats” value ([1]; 0.6 k/kg/day for 10 days) was “½” and the “Css, plasma of [^3H] TC, 4PBA-treated vs vehicle-treated SD rats” value ([1]; 0.6 k/kg/day for 10 days) was “no significant difference”. The “Vss, bile of [^3H] TC, 4PBA-treated vs vehicle-treated SD rats” value ([1]; 0.6 k/kg/day for 10 days) was “no significant difference”, the “CLbile, liver” value [1, 2] was 19.0 ± 3.9 mL/min/kg and the “CLbile, plasma” value [1, 2] was 26.3 ± 2.0 mL/min/kg. For the same compound, the CLtotal [1, 2] was 26.6 ± 3.8 mL/min/kg, the “Css, liver” value [1, 2] was 3.8 ± 0.7 ng/mL and the “Css, plasma” value [1, 2] was 2.6 ± 0.2 ng/mL. The “CLbile, liver” value [1, 3] was 29.3 ± 6.1 mL/min/kg, the “CLbile, plasma” value [1, 3] was 32.3 ± 2.9 mL/min/kg and the CLtotal [1, 3] was 30.7 ± 3.7 mL/min/kg. For the same compound, the “Css, liver” value [1, 3] was 2.6 ± 0.5 ng/mL, the “Css, plasma” value [1, 3] was 2.0 ± 0.2 ng/mL and the “CLbile, liver” value [1, 4] was 19.2 ± 3.2 mL/min/kg. For the same compound, the “CLbile, plasma” value [1, 4] was 23.9 ± 4.7 mL/min/kg, the CLtotal [1, 4] was 29.6 ± 3.5 mL/min/kg and the “Css, liver” value [1, 4] was 5.9 ± 1.8 ng/mL. The “Css, plasma” value [1, 4] was 3.3 ± 0.7 ng/mL, the “CLbile, liver” value ([1]; 4PBA (5 days), N = 6, SD rats) was 21.7 ± 3.0 mL/min/kg and the “CLbile, plasma” value ([1]; 4PBA (5 days), N = 6, SD rats) was 32.3 ± 8.5 mL/min/kg. For the same compound, the CLtotal ([1]; 4PBA (5 days), N = 6, SD rats) was 26.6 ± 3.8 mL/min/kg, the “Css, liver” value ([1]; 4PBA (5 days), N = 6, SD rats) was 3.1 ± 0.5 ng/mL and the “Css, plasma” value ([1]; 4PBA (5 days), N = 6, SD rats) was 2.3 ± 0.3 ng/mL. The “CLbile, liver” value ([1]; 4PBA (10 days), N = 9, SD rats) was 29.3 ± 6.1 mL/min/kg, the “CLbile, plasma” value ([1]; 4PBA (10 days), N = 9, SD rats) was 32.3 ± 2.9 mL/min/kg and the CLtotal ([1]; 4PBA (10 days), N = 9, SD rats) was 30.7 ± 3.7 mL/min/kg. For the same compound, the “Css, liver” value ([1]; 4PBA (10 days), N = 9, SD rats) was 2.6 ± 0.5 ng/mL, the “Css, plasma” value ([1]; 4PBA (10 days), N = 9, SD rats) was 2.0 ± 0.2 ng/mL and the “CLbile, liver” value ([1]; 4PBA (15 days), N = 3, SD rats) was 29.9 ± 1.5 mL/min/kg. For the same compound, the “CLbile, plasma” value ([1]; 4PBA (15 days), N = 3, SD rats) was 33.2 ± 2.0 mL/min/kg, the CLtotal ([1]; 4PBA (15 days), N = 3, SD rats) was 27.5 ± 2.7 mL/min/kg and the “Css, liver” value ([1]; 4PBA (15 days), N = 3, SD rats) was 2.3 ± 0.2 ng/mL. The “Css, plasma” value ([1]; 4PBA (15 days), N = 3, SD rats) was 2.1 ± 0.2 ng/mL and the side effects ([1]; SD rats, under all conditions (various times and doses)) was “No clear side effects were recognized”.
